The values that follow come from PubChem BioAssay (NCI).

The structures appear in SMILES notation.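 Each compound was tested at five concentrations against cells in 96-well plates for 48 hours. TGI: total growth inhibition.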 Some results are limits rather than exact numbers.

Some test systems named below: M19-MEL melanoma; LXFL 529 NSCLC; RXF-631 renal; HOP-18 NSCLC; XF 498 CNS; SN12K1 renal; P388/ADR leukemia; P388 leukemia.
Holding throughout (assay): NCI tumour cell line growth inhibition, 48 h

`COc1ccc(N2C(=O)/C(=C(\C)c3cc4ccccc4oc3=O)N=C2c2cc([N+](=O)[O-])ccc2Cl)cc1`: the TGI with M19-MEL melanoma, in the experiment with LXFL 529 NSCLC, with RXF-631 renal and with HOP-18 NSCLC was over 100 µM each time.
Consider `CCOC(=O)C1(C#N)C(c2ccccc2)CC(O)(c2ccc(OC)cc2)C(C(=O)c2ccc(OC)cc2)C1c1ccccc1` (stereo not drawn), for which the TGI in the experiment with M19-MEL melanoma, in the experiment with LXFL 529 NSCLC and with HOP-18 NSCLC was over 100 µM in each case.
As for `O=c1[nH]c2c(nc1NC13CC4CC(CC(C4)C1)C3)c(=O)oc1ccccc12`, the TGI with M19-MEL melanoma, in the experiment on LXFL 529 NSCLC and in the experiment with XF 498 CNS was over 100 µM in each case.
For `CO/N=C/c1cc(OC)c(OC)c(OC)c1`, the TGI in the experiment with M19-MEL melanoma, in the experiment with LXFL 529 NSCLC, in the experiment on RXF-631 renal, in the experiment on HOP-18 NSCLC and in the experiment on XF 498 CNS was over 100 µM throughout.
As to `CC(=O)N(C)c1ccc(Nc2cc(C)[nH]c3ccc4ncnc4c23)cc1`, the TGI worked out at 16.6 µM in the experiment with SN12K1 renal; 20.1 µM with M19-MEL melanoma; 228 µM with P388/ADR leukemia; 53.1 µM in the experiment on HOP-18 NSCLC; 5.92 µM with XF 498 CNS; 49.2 µM in the experiment with P388 leukemia.
As for `CC(C)(C)[Si](OC1CC(n2cnc3c(N)ncnc32)OC1CO)(c1ccccc1)c1ccccc1` (stereo not drawn), the TGI is 42.9 µM in the experiment with M19-MEL melanoma, over 100 µM in the experiment with LXFL 529 NSCLC, over 100 µM with HOP-18 NSCLC and 51.3 µM with XF 498 CNS.
As to `COc1ccc(C2C(Cl)C(=O)N2n2cnc3ccccc3c2=O)cc1` (stereo not drawn), the TGI in the experiment on M19-MEL melanoma, with LXFL 529 NSCLC, with HOP-18 NSCLC and with XF 498 CNS was over 100 µM in each case.
Turning to `COc1cc2cc3c4c(cc(OC)c(OC)c4c2cc1OC)CCN3C(=O)OCCN1CCNCC1`, the TGI was determined as 19.6 µM in the experiment with M19-MEL melanoma, 28.3 µM with LXFL 529 NSCLC, 30.7 µM in the experiment with HOP-18 NSCLC and 29.4 µM in the experiment on XF 498 CNS.
